Laboratory results from patent US20140377219A1, “HIV INHIBITORS” (New york Blood Center, Inc., priority 2011, published 2014).
Read-outs that look alike come from different tables or passages of the source.

Assays:
[1] = test system: primary HIV-1 isolate 93MW959 (clade C, R5); assay: Neutralization assay in PBMC (p24 ELISA); settings: read-out: IC50 (μM) ± S.D., inhibitory activity on infection, 93MW959, subtype C
Protocol: The inhibitory activity of small molecules on infection by primary HIV-1 isolates was determined. PBMCs were isolated from the blood of healthy donors at the New York Blood Center by standard density-gradient centrifugation using Histopaque-1077 (Sigma-Aldrich). The cells were cultured at 37° C. for 2 h. Non-adherent cells were collected and resuspended at 5×10^6 cells/ml in RPMI-1640 medium containing 10% (v/v) fetal bovine serum, 5 μg/ml of phytohemagglutinin, and 100 U/ml of IL-2 (Sigma-Aldrich), followed by incubation at 37° C. for three days.

[2] = test system: Panel C env Du156, clone 12 (SVPC3); format: cell-based; settings: TZM-bl, read-out: IC50 (μM) ± S.D., antiviral activity against HIV-1 envelope pseudoviruses
gp120-CD4 interaction = gp120-CD4 interaction (Human immunodeficiency virus type 1 group M subtype B, UniProt P03375); format: binding; settings: FIG. 7
HIV-1 MN = assay: Multi-cycle neutralization assay in MT-2 cells; settings: read-out: IC50 (μM) ± S.D., inhibitory activity on infection; MN, subtype B, MT-2, X4, laboratory strain
Protocol: In brief, 1×10^4 MT-2 cells were infected with HIV-1 at 100 TCID50 (50% tissue culture infective dose) (0.01MOI) in 200 μl medium in the presence or absence of small molecules at graded concentrations and incubated overnight. The culture supernatants were then removed and replaced with fresh media. On the fourth day post-infection, 100 μl of culture supernatants were collected from each well, mixed with equal volume of 5% Triton X-100 and tested for p24 antigen by sandwich-ELISA. The percent inhibition of p24 production and IC50 values were calculated by the GraphPad Prism software (GraphPad Software Inc.).

[3] = test system: primary HIV-1 isolate 93BR029 (clade F, R5); assay: Neutralization assay in PBMC (p24 ELISA); settings: read-out: IC50 (μM) ± S.D., inhibitory activity on infection; 93BR029, subtype F, PBMC, R5, primary isolate
Protocol: (§2) PBMCs were isolated from the blood of healthy donors at the New York Blood Center by standard density-gradient centrifugation using Histopaque-1077 (Sigma-Aldrich). The cells were cultured at 37° C. for 2 h. Non-adherent cells were collected and resuspended at 5×10^6 cells/ml in RPMI-1640 medium containing 10% (v/v) fetal bovine serum, 5 μg/ml of phytohemagglutinin, and 100 U/ml of IL-2 (Sigma-Aldrich), followed by incubation at 37° C. for three days.

PBMC = assay: Cytotoxicity in PBMC (XTT); format: cell-based
Protocol: Cytotoxicity of small molecules in MT-2 cells and PBMC was measured by the XTT ((sodium 3′-(1-(phenylamino)-carbonyl)-3,4-tetrazolium-bis(4-methoxy-6-nitro)benzene-sulfonic acid hydrate)) method. Briefly, for MT-2 cells, 100 μl of a small molecule at graded concentrations was added to an equal volume of cells (10^5 cells/ml) in 96-well plates followed by incubation at 37° C. for four days, which ran parallel with the neutralization assay in MT-2 (except medium was added instead of virus). In the case of PBMC, 5×10^5 cells/ml was used and the cytotoxicity was measured after seven days. […] The percentage cytotoxicity and the CC50 values were calculated as described above.

[4] = test system: Panel C env ZM-233M.PB6, SVPC9; format: cell-based; settings: TZM-bl, read-out: IC50 (μM) ± S.D., antiviral activity against HIV-1 envelope pseudoviruses
[5] = test system: primary HIV-1 isolate 92US657 (subtype B, R5); assay: Neutralization assay in PBMC (p24 ELISA); settings: read-out: IC50 (μM) ± S.D., inhibitory activity on infection; 92US657, subtype B, PBMC, R5, primary isolate
Protocol: as §2

HIV-1 SF2 = assay: Multi-cycle neutralization assay in MT-2 cells; settings: read-out: IC50 (μM) ± S.D., inhibitory activity on infection; SF2, subtype B, MT-2, R5X4, laboratory strain
[6] = test system: Panel B env pCAAN5342 clone A2 (SVPB19); format: cell-based; settings: TZM-bl, read-out: IC50 (μM) ± S.D., antiviral activity against HIV-1 envelope pseudoviruses
[7] = test system: Panel C env Du172, clone 17 (SVPC4); format: cell-based; settings: TZM-bl, read-out: IC50 (μM) ± S.D., antiviral activity against HIV-1 envelope pseudoviruses
[8] = test system: Panel C env CAP-210.2.00.E8, SVPC17; format: cell-based; settings: TZM-bl, read-out: IC50 (μM) ± S.D., antiviral activity against HIV-1 envelope pseudoviruses
HIV-1 BaL = assay: Neutralization assay in PBMC (p24 ELISA); settings: read-out: IC50 (μM) ± S.D., inhibitory activity on infection, BaL, subtype B, R5, laboratory strain
Protocol: as §2

CD4 = CD4 (Homo sapiens, UniProt P01730); assay: Surface plasmon resonance (SPR), ligand CD4; format: binding; settings: SPR
[9] = test system: CD4-dependent virus (ADA); format: cell-based; settings: ADA in Cf2Th-CD4+-CCR5+ target cells, FIG. 5; read-out: IC50, inhibition of the CD4-dependent virus
HIV-1MN gp120 and sCD4 = target: T1, HIV-1MN gp120 and sCD4 (Human immunodeficiency virus type 1 group M subtype B, UniProt P05877); assay: biochemical; format: binding; settings: captured ELISA, sCD4 0.25 μg/ml; read-out: IC50 (μM ± SD), interaction HIV-1MN gp120 and sCD4
T1 construct: recombinant gp120 from HIV-1IIIB and HIV-1MN
Protocol: (§1) The compounds were incubated at graded concentrations with sCD4 (0.25 μg/ml) in the wells of polystyrene plates containing recombinant gp120, which was captured by coating the plates with a sheep anti-gp120 antibody D7324.

HIV-1IIIB gp120 and sCD4 = target: T2, HIV-1IIIB gp120 and sCD4 (Human immunodeficiency virus type 1 group M subtype B, UniProt P03375); assay: biochemical; format: binding; settings: captured ELISA, sCD4 0.25 μg/ml; read-out: IC50 (μM ± SD), interaction HIV-1IIIB gp120 and sCD4
T2 construct: recombinant gp120 from HIV-1IIIB and HIV-1MN
Protocol: as §1

gp120 = gp120 (Human immunodeficiency virus type 1 group M subtype B, UniProt P03375); assay: biochemical; format: binding, HIV-1; settings: SPR, ligand gp120
[10] = PBMC, XTT, seven days, read-out: PBMC CC50

What does the source list for `Cc1nc(C(NC(=O)C(=O)Nc2ccc(Cl)cc2)C2CCCCN2)sc1CO.Cl` (stereo not drawn) [Compound 6, N^1-(4-chlorophenyl)-N^2-((5-(hydroxymethyl)-4-methylthiazol-2-yl)(piperidin-2-yl)methyl)oxalamide.HCl]?
IC50 [1]: > 43.5 µM; IC50 [2]: 4.6 ± 0.13 µM; inhibition of the gp120-CD4 interaction (gp120-CD4 interaction): inhibit gp120-CD4 interaction in a dose dependent manner; IC50 (HIV-1 MN): 4 ± 0.9 µM; IC50 [3]: 8 ± 1.3 µM; CC50 (PBMC): > 160 µM; IC50 [4]: 5.6 ± 1.3 µM; IC50 [5]: 8.6 ± 0.9 µM; IC50 (HIV-1 SF2): 5.7 ± 0.9 µM; IC50 [6]: 2.3 ± 0.3 µM; IC50 [7]: 3 ± 0.38 µM; IC50 [8]: 15.1 ± 1.5 µM; IC50 (HIV-1 BaL): 35.8 ± 1.2 µM

With `Cc1ccc(NC(=O)C(=O)NC(c2nc(C)c(CO)s2)C2CCCCN2)cc1F.Cl` (stereo not drawn) [Compound 28, N^1-(3-fluoro-4-methylphenyl)-N^2-((5-(hydroxymethyl)-4-methylthiazol-2-yl)(piperidin-2-yl)methyl)oxalamide.HCl] as the compound, how does the IC50 [1] read?
The IC50 was over 42.5 µM.

And the IC50 (HIV-1 MN)?
The IC50 was 24.6 ± 4.6 µM.

And the IC50 [3]?
Its IC50 is 5.2 ± 1.1 µM.

What about the CC50 (PBMC; [10]) of the same compound?
Its CC50 is about 106 µM.

And the IC50 [5]?
The IC50 was 12.3 ± 1.3 µM.

What about the IC50 (HIV-1 SF2) of the same compound?
Its IC50 is 38.7 ± 4.5 µM.

What about the IC50 [6] of the same compound?
The IC50 was 1.5 ± 0.1 µM.

And the IC50 [8]?
Its IC50 is over 42 µM.

And the IC50 (HIV-1 BaL)?
The IC50 was 23.7 ± 0.3 µM.

Which IC50 [2] does the source give for `Cc1nc(C(NC(=O)C(=O)Nc2ccc(Cl)c(F)c2)C2CCCCN2)sc1CCO.Cl` (stereo not drawn) [Compound 39, N^1-(4-chloro-3-fluorophenyl)-N^2-((5-(2-hydroxyethyl)-4-methylthiazol-2-yl)(piperidin-2-yl)methyl)oxalamide.HCl] here?
The IC50 was 1.7 ± 0.2 µM.

What about the IC50 (HIV-1 MN) of the same compound?
Its IC50 is 16.7 ± 1.5 µM.

What about the IC50 [3] of the same compound?
The IC50 was 8.3 ± 0.7 µM.

And the “% toxicity at that dose (number in parenthesis), PBMC” value (PBMC)?
The value was “(20%)”.

What about the CC50 (PBMC) of the same compound?
The CC50 was over 81 µM.

And the IC50 [4]?
Its IC50 is 2.5 ± 0.5 µM.

And the IC50 [5]?
The IC50 was 7.1 ± 0.9 µM.

What about the IC50 (HIV-1 SF2) of the same compound?
Its IC50 is 15.8 ± 1.7 µM.

What about the IC50 [6] of the same compound?
Its IC50 is 0.8 ± 0.3 µM.

What about the IC50 [7] of the same compound?
Its IC50 is 5.3 ± 0.2 µM.

What about the IC50 [8] of the same compound?
The IC50 was 3.2 ± 0.6 µM.

What about the IC50 (HIV-1 BaL) of the same compound?
Its IC50 is 24.9 ± 4.5 µM.

Which IC50 [1] does the source give for `CC1(C)CC(NC(=O)C(=O)Nc2ccc(Cl)cc2)CC(C)(C)N1` [NBD-556, reference compound] here?
Its IC50 is 57.2 ± 8.7 µM.

What about the “inhibition of the gp120-CD4 interaction” value (gp120-CD4 interaction) of the same compound?
The value was “in a dose dependent manner”.

What about the IC50 (HIV-1 MN) of the same compound?
The IC50 was 15.9 ± 1.6 µM.

What about the IC50 [3] of the same compound?
The IC50 was 40 ± 10.6 µM.

And the CC50 (PBMC; [10])?
The CC50 was 961 µM.

And the “binding to CD4” value (CD4)?
The value was “not to CD4”.

And the IC50 [4]?
Its IC50 is 4.9 ± 1.13 µM.

And the IC50 [9]?
Its IC50 is 22.6 µM.

And the IC50 [5]?
The IC50 was 48 ± 1.65 µM.

What about the IC50 (HIV-1 SF2) of the same compound?
The IC50 was at least 118 µM.

And the IC50 (HIV-1MN gp120 and sCD4)?
Its IC50 is 5.66 ± 0.8 µM.

What about the IC50 (HIV-1IIIB gp120 and sCD4) of the same compound?
The IC50 was 2.11 µM.

And the IC50 [6]?
Its IC50 is 2.4 ± 0.3 µM.

What about the IC50 [7] of the same compound?
The IC50 was 4.2 ± 0.23 µM.

What about the IC50 [8] of the same compound?
Its IC50 is 13.3 ± 1.3 µM.

What about the “Rmax (RU)” value (gp120) of the same compound?
The value was 6.99 RU.

What about the IC50 (HIV-1 BaL) of the same compound?
Its IC50 is at least 118 µM.
